Experimental data taken from publication PMC10707934, “Design and Synthesis of Novel α-Methylchalcone Derivatives, Anti-Cervical Cancer Activity, and Reversal of Drug Resistance in HeLa/DDP Cells” (Molecules, 2023).

Experiments:
HeLa cells [1] = test: MTT anti-proliferation assay, HeLa; assay type: cell-based, human; settings: 48 h, mean ± SD
Method: All cell types, at a volume of 200 µL per well, were inoculated in 96-well plates at a density of 2.5 × 10^4 cells / mL and cultured for 24 h in an incubator with 5% CO2 at 37 °C. The old culture medium was replaced with 200 µL of fresh medium per well containing positive compounds, at concentrations of 1, 6.25, 12.5, 25, 50, and 100 μM. After 48 h of culture, 20 µL per well of 5 mg·mL^−1 MTT solution was added. After 4 h of culture, the old solution was discarded, and 150 µL per well of DMSO solution was added. Using an enzyme labeler (Thermo Fisher Scientific, Multiskan GO, Waltham, MA, USA), the plates were shaken for 10 min, OD values were determined at 490 nm, and the inhibition rate was calculated. Non-linear regression fitting of the cell growth rate was carried out using SPSS 23.0, and the IC50 of the compound was calculated. The inhibition rate was calculated using the formula: [(ODempty − ODtest)/(ODempty − ODnegative group)] × 100%, (ODempty blank group absorbance, ODtest absorbance of administration group, ODnegative group without cell culture medium). Each group contained six compound holes, and the experimental results averaged three trials. Complete medium containing only cells was used as the blank control; a complete medium without cells as was used as the negative control; and cisplatin, paclitaxel, and adriamycin were used as the positive controls. The concentration gradient was the same as that used for compounds 3a–3p. […]

SiHa cells = test: MTT anti-proliferation assay, SiHa; assay type: cell-based, human; settings: 48 h, mean ± SD
Method: (§1) All cell types, at a volume of 200 µL per well, were inoculated in 96-well plates at a density of 2.5 × 10^4 cells / mL and cultured for 24 h in an incubator with 5% CO2 at 37 °C. The old culture medium was replaced with 200 µL of fresh medium per well containing positive compounds, at concentrations of 1, 6.25, 12.5, 25, 50, and 100 μM. After 48 h of culture, 20 µL per well of 5 mg·mL^−1 MTT solution was added. After 4 h of culture, the old solution was discarded, and 150 µL per well of DMSO solution was added. Using an enzyme labeler (Thermo Fisher Scientific, Multiskan GO, Waltham, MA, USA), the plates were shaken for 10 min, OD values were determined at 490 nm, and the inhibition rate was calculated. Non-linear regression fitting of the cell growth rate was carried out using SPSS 23.0, and the IC50 of the compound was calculated. The inhibition rate was calculated using the formula: [(ODempty − ODtest)/(ODempty − ODnegative group)] × 100%, (ODempty blank group absorbance, ODtest absorbance of administration group, ODnegative group without cell culture medium). Each group contained six compound holes, and the experimental results averaged three trials. Complete medium containing only cells was used as the blank control; a complete medium without cells as was used as the negative control; and cisplatin, paclitaxel, and adriamycin were used as the positive controls. The concentration gradient was the same as that used for compounds 3a–3p.

C33A cells = test: MTT anti-proliferation assay, C33A; assay type: cell-based, human; settings: 48 h, mean ± SD
Method: as §1

[2] = system: human cervical epithelial cells H8; test: MTT toxicity assay, normal cervical epithelial cells H8; assay type: cell-based; settings: 48 h, mean ± SD
Method: as §1

HeLa/DDP cells [3] = test: MTT anti-cisplatin-resistant cervical cancer activity, HeLa/DDP; assay type: cell-based, human; settings: for resistance index (RI): HeLa/DDP versus parental HeLa; for resistance index (RI) / IC50: 48 h; for IC50: HeLa/DDP, MTT, mean ± SD
Method: as §1
To mitigate the detrimental consequences arising from the fixation of resistance reversal agents, concentrations that yielded a tumor cell proliferation rate reduction of less than 10% were selected. Consequently, the inhibitory efficacy of compound 3k against HeLa/DDP cells was assessed in conjunction with cisplatin at concentrations of 0.25, 0.5, and 1 μM. The experimental procedure employed was akin to that elucidated in Section 3.3.2. The impact of verapamil (6 μM) and 3k (0.25, 0.5, and 1 μM) on P-gp expression was ascertained via Western blot experiments, employing the same methodology delineated in Section 3.3.4.

HeLa cells [4] = test: Cell cycle experiment (PI flow cytometry), HeLa; assay type: cell-based, human; settings: 24 h
Method: (§2) A 2 mL volume of cell fluid per well at a concentration of 1 × 10^6 cells / mL was inoculated into a 6-well plate and cultured for 24 h. After removing the old solution, 2 mL of the cell culture medium containing 3k was added to each well, and each well was exposed for 24 h to a concentration gradient of 2.5, 5, and 10 μM. The experiment was repeated three times for each concentration. Complete culture medium containing only cells was used as the blank control group, and 20 μM cisplatin and chalcone injection were used as the positive control group. After 24 h of treatment, the cells were collected in a 15 mL centrifuge tube and fixed with 75% ethanol at 4 °C for 24 h. A 400 µL volume of PI/RNase staining buffer (BD Biosciences Pharmingen, 550825, 10975 Torreyana Road, San Diego, CA, USA) was uniformly dispersed and subjected to staining for 15 min at room temperature […]. The sample was subsequently filtered and analyzed using up-flow cytometry (BD, LSRFortessa, New York, NY, USA).

HeLa/DDP cells [5] = test: Cell cycle experiment (PI flow cytometry), HeLa/DDP; assay type: cell-based, human; settings: 24 h; for blocking rate at the G2/M phase: control 4.05%
Method: as §2
The experimental methods for the effect of compound 3k, cisplatin, and chalcone on the HeLa/DDP cell cycle were the same as in Section 3.3.5.

HeLa cells [6] = test: Transwell Matrigel invasion assay, HeLa; assay type: cell-based, human
Method: (§3) The Transwell ([…], Corning Incorporated, New York, NY, USA) was precoated using 50 μL Matrigel for 5 h at 37 °C to achieve solidification. HeLa cells was collected and suspended in a serum-free medium containing varying concentrations (0, 2.5, 5, and 10 μM) of compound 3k, along with 20 μM cisplatin and chalcone. These cell suspensions were then added to the upper wells of a permeabilization chamber at a density of 5 × 10^5 cells/mL. In the lower wells, 600 μL of DMEM containing 10% FBS was added, which had been prepared using 50 μL of Matrigel (diluted 1:8 with serum-free medium from Corning/BD Biosciences). After 24 h of incubation at 37 °C, the invasion cells were fixed using 4% paraformaldehyde and stained using 0.1% crystal violet for 30 min. Then, the chambers were washed using PBS and left to dry. Images were photographed using an inverted fluorescence microscope (Leica Instruments Co., Ltd., Microsystems CMS GmbH, Weizler, Hesse, Germany) and counted using Image J software (V1.8.0.112) for three independent fields randomly.

HeLa/DDP cells [7] = test: Transwell Matrigel invasion assay, HeLa/DDP; assay type: cell-based, human; settings: 24 h, control 399
Method: as §3
The experimental methods for the effects of compound 3k, cisplatin, and chalcone on HeLa/DDP cell invasion and migration were the same as in Section 3.3.6.

## N.N.[Cl][Pt][Cl] [Cisplatin, cisplatin, reference compound]
HeLa cells [1]
  IC50: 13 ± 1.82 µM
SiHa cells
  IC50: 20.7 ± 1.85 µM
C33A cells
  IC50: 6.05 ± 1.15 µM
[2]
  IC50: 25.2 ± 1.29 µM
HeLa/DDP cells [3]
  resistance index (RI): 7.90
  IC50: 103 ± 3.6 µM
HeLa cells [4]; 20 μM, control 52.1%
  percentage of cells in the G0/G1 phase: 73.93%
HeLa/DDP cells [5]; 20 μM, control 57.03%
  percentage of cells in G0/G1 phase: 65.07%
HeLa cells [6]; 24 h, 20 μM
  number of cells undergoing invasion: 237
HeLa/DDP cells [7]; 20 μM
  number of invasion cells: 301

## COc1ccc(/C=C(\C)C(=O)c2ccc(Cl)c(Cl)c2)cc1OC [Compound 3k, (E)-1-(3,4-Dichlorophenyl)-3-(3,4-dimethoxyphenyl)-2-methylprop-2-en-1-one]
HeLa cells [1]; Homo sapiens
  IC50: 9.05 ± 0.53 µM
SiHa cells; Homo sapiens
  IC50: 14.5 ± 0.98 µM
C33A cells; Homo sapiens, C-33-A
  IC50: 12.1 ± 2.44 µM
[2]; Homo sapiens, Epithelial cell
  IC50: > 100 µM
HeLa/DDP cells [3]
  resistance index (RI): 1.07
HeLa/DDP cells [3]; HeLa/DDP, 0.25, 0.5, or 1 μM
  inhibition rate against HeLa/DDP cell lines: less than 10%
HeLa/DDP cells [3]; Homo sapiens
  IC50: 9.72 ± 0.73 µM
HeLa cells [4]; 2.5 μM
  blocking rate at the G2/M phase: 14.04%
HeLa cells [4]; 5 μM
  blocking rate at the G2/M phase: 22.84%
HeLa cells [4]; 10 μM
  blocking rate at the G2/M phase: 40.18%
HeLa/DDP cells [5]; 2.5 μM
  blocking rate at the G2/M phase: 14.71%
HeLa/DDP cells [5]; 5 μM
  blocking rate at the G2/M phase: 22.85%
HeLa/DDP cells [5]; 10 μM
  blocking rate at the G2/M phase: 52.72%
HeLa cells [6]; 24 h, 2.5, 5, and 10 μM
  number of cells undergoing invasion compared to the control group: significant decrease in the number of cells undergoing invasion
HeLa/DDP cells [7]; 2.5 μM
  number of invasion cells: 293
HeLa/DDP cells [7]; 5 μM
  number of invasion cells: 237
HeLa/DDP cells [7]; 10 μM
  number of invasion cells: 90
